In patent publication US12371428B2 (Exelixis, Inc., priority 2019, dated 2025):
Read-outs that look alike come from different tables or passages of the source.

Experiments:
Assay type in all cases: cell-based
[1] = target: KDR (phospho-KDR, VEGF165-stimulated HUVEC cells) (Homo sapiens (Human), UniProt P35968); test: KDR autophosphorylation ELISA in HUVEC cells (Example G); conditions: cellular activity
In short: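 HUVECs were serum-starved 24 h, given compound as an 8-point dilution series (0.3% DMSO final) for 1 h, then stimulated with 100 ng/mL VEGF165 for 5 min. Lysate phospho-KDR was quantified by sandwich ELISA against a phospho-KDR standard, and IC50s came from a 4-parameter logistic fit.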

[2] = target: Mer (phospho-Mer, MERTK-transfected 293A cells) (Homo sapiens (Human), UniProt Q12866); test: Mer autophosphorylation ELISA in transient transfected 293A cells (Example H); conditions: cellular activity
Sequence of Mer (phospho-Mer, MERTK-transfected 293A cells) (Q12866 21-999): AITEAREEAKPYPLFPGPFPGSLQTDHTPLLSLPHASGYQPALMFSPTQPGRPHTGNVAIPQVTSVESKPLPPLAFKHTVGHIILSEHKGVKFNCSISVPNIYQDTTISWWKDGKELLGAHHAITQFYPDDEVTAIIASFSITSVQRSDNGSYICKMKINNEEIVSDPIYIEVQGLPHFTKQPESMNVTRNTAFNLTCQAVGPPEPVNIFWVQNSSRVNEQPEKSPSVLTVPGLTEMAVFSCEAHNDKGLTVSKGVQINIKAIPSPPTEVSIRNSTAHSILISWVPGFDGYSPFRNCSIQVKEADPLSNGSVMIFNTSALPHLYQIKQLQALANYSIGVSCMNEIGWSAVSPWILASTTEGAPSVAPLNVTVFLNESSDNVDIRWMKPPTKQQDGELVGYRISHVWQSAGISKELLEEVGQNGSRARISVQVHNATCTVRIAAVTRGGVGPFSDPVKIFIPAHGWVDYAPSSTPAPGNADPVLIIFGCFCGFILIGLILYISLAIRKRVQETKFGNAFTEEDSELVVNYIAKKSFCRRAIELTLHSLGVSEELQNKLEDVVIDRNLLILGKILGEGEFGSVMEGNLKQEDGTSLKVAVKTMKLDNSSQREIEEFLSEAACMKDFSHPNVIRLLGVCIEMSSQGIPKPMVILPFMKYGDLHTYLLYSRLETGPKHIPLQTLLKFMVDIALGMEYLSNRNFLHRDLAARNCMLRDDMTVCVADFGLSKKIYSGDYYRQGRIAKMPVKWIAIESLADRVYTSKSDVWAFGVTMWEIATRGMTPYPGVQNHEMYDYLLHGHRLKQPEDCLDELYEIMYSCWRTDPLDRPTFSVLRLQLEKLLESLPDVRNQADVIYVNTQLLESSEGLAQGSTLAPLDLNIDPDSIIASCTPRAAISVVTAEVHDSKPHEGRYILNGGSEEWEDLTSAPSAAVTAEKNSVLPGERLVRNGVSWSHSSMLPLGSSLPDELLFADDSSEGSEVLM
In short: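 Human MERTK transiently transfected into 293A cells; compounds as 8-point dose curve in serum-free medium (0.3% DMSO final), 1 h. Lysates assayed by phospho-Mer sandwich ELISA against phospho-Mer standard; DMSO = 100%, reference inhibitor = 0% activity; IC50 from 4-parameter logistic fit.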

[3] = target: Met (phospho-Met, HGF-stimulated PC-3 prostate cancer cells) (Homo sapiens (Human), UniProt P08581); test: Met autophosphorylation ELISA in PC-3 cells (Example F); conditions: cellular activity, read-out: c-Met IC50
Sequence of Met (phospho-Met, HGF-stimulated PC-3 prostate cancer cells) (P08581 25-1390): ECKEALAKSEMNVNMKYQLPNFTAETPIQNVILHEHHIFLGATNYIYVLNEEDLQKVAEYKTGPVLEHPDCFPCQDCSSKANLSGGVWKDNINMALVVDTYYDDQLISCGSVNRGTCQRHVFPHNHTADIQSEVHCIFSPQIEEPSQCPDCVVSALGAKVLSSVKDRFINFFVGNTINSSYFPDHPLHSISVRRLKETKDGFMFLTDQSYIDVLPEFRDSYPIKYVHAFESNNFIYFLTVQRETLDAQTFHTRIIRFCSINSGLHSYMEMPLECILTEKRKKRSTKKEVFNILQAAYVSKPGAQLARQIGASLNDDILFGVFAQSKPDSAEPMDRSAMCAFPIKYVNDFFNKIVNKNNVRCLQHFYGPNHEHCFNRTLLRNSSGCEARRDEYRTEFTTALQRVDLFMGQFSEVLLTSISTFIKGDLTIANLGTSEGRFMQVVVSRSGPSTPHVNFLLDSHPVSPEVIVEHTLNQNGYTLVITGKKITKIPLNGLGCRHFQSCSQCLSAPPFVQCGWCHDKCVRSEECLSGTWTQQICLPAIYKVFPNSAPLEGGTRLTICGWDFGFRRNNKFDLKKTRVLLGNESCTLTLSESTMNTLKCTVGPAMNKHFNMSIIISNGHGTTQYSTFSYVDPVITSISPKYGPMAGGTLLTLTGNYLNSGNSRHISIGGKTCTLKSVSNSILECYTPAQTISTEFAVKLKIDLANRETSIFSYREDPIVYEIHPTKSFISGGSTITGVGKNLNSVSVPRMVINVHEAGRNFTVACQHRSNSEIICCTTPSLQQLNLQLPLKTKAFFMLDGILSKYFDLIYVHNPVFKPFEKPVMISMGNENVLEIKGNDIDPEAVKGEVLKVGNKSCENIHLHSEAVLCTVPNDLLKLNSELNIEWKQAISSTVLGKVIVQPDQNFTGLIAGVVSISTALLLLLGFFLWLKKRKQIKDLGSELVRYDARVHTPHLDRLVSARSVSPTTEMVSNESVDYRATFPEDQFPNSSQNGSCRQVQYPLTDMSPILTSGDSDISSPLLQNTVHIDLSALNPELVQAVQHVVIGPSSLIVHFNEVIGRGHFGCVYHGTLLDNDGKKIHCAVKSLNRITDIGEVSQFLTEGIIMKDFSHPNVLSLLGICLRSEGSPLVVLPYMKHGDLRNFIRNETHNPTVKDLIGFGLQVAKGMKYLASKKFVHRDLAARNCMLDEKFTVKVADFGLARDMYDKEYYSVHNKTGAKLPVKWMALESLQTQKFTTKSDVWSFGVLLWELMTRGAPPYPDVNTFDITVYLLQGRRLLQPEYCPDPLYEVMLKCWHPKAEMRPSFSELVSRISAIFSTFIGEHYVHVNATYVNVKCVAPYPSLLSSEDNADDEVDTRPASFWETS
In short: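 PC-3 cells, serum-starved 3 h, were treated with compounds (8-point dose curve, 0.3% DMSO final) for 1 h, then stimulated with 100 ng/mL recombinant human HGF for 10 min. Lysate phospho-Met (panTyr) was quantified by sandwich ELISA; IC50 from 4-parameter logistic fit.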

[4] = target: AXL (phospho-AXL, Gas6-stimulated A-172 glioblastoma cells) (Homo sapiens (Human), UniProt P30530); test: AXL autophosphorylation ELISA in A-172 cells (Example E); conditions: cellular activity, read-out: Axl IC50
Sequence of AXL (phospho-AXL, Gas6-stimulated A-172 glioblastoma cells) (P30530 26-894): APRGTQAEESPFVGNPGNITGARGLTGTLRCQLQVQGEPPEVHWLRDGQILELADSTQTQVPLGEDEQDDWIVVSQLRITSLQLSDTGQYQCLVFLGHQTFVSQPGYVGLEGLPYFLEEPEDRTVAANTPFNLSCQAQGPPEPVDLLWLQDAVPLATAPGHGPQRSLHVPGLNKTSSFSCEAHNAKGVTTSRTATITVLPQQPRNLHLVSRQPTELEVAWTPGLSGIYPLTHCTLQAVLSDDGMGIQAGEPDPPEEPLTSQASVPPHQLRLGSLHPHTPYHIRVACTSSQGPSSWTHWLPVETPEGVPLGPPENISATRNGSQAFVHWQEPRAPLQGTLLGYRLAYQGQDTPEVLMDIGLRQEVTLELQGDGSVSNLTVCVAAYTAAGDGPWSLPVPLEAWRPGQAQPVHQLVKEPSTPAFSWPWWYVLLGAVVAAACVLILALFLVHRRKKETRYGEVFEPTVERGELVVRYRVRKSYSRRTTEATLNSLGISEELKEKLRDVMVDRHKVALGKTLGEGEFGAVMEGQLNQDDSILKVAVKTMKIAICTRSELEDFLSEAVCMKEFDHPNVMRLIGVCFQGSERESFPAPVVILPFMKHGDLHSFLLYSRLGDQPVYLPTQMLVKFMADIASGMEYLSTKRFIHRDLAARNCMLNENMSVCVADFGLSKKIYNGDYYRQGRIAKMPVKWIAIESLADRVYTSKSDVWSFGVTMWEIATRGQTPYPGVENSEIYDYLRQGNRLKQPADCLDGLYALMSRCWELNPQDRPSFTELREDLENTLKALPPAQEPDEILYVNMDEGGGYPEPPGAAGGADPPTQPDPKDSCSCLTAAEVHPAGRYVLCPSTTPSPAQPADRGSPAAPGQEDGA
In short: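 Phospho-AXL in lysates was quantified by ELISA, normalised to DMSO (100%) and reference inhibitor (0%) controls. IC50 by 4-parameter logistic fit.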

[5] = KDR autophosphorylation ELISA in HUVEC cells
[6] = Mer autophosphorylation ELISA in transient transfected 293A cells
[7] = Met autophosphorylation ELISA in PC-3 cells
[8] = AXL autophosphorylation ELISA in A-172 cells

Sequence of KDR (phospho-KDR, VEGF165-stimulated HUVEC cells) (P35968 20-1356): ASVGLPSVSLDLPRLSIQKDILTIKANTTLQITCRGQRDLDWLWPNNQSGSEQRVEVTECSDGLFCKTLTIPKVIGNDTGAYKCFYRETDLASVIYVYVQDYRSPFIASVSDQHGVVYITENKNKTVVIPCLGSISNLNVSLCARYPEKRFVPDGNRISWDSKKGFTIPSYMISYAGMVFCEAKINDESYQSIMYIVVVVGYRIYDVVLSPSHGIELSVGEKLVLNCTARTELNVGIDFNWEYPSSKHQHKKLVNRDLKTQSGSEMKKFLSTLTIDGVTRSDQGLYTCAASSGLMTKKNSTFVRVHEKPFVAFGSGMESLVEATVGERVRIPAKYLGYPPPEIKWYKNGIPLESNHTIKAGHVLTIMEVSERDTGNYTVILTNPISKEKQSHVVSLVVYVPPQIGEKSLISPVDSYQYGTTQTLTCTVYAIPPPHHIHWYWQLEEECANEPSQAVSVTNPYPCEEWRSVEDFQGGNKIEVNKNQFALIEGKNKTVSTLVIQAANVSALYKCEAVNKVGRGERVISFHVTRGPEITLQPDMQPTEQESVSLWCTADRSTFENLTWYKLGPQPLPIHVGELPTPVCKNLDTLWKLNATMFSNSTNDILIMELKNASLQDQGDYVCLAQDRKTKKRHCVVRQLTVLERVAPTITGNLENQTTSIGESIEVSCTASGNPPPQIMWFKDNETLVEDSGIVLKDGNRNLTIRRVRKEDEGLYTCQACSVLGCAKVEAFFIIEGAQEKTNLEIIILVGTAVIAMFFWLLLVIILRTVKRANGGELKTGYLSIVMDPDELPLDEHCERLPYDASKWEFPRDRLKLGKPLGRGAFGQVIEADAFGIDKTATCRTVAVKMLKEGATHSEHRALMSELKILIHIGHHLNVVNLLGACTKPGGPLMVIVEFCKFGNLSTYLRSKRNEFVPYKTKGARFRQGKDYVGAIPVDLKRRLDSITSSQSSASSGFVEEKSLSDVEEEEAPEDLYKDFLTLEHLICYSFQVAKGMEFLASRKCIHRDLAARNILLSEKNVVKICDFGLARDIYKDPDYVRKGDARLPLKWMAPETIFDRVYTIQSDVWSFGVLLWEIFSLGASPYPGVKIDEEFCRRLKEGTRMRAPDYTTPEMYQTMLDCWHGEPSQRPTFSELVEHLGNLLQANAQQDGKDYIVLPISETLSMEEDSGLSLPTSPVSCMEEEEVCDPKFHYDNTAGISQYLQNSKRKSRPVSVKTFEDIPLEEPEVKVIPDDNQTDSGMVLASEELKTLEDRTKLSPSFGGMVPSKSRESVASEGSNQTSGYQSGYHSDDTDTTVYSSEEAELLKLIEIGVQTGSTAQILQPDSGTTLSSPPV

IC50 [1, 5]	IC50 [2, 6]	IC50 [3, 7]	IC50 [4, 8]	IC50 ([1]; HUVEC cells)	IC50 ([2]; transfected 293A cells)	IC50 ([3]; PC-3 cells)	IC50 ([4]; A-172 cells)	SMILES
< 100 nM	< 100 nM	< 100 nM	< 100 nM					COc1cc2nccc(Oc3ccc(NC(=O)c4nnc(C)c(-c5ccc(F)cc5)c4OC(C)C)cc3F)c2cc1OC [Compound 574, N-[4-(6,7-Dimethoxyquinolin-4-yl)oxy-3-fluorophenyl]-5-(4-fluorophenyl)-6-methyl-4-propan-2-yloxypyridazine-3-carboxamide]
< 100 nM	< 100 nM	< 100 nM	< 100 nM					COc1cc2nccc(Oc3ccc(NC(=O)c4cn(C)c(C)c(-c5ccc(F)cc5)c4=O)cc3C)c2nc1OC [Compound 763, N-[4-[(6,7-dimethoxy-1,5-naphthyridin-4-yl)oxy]-3-methylphenyl]-5-(4-fluorophenyl)-1,6-dimethyl-4-oxopyridine-3-carboxamide]
< 100 nM	< 100 nM	< 100 nM	< 100 nM					COc1cc2nccc(Oc3ccc(NC(=O)c4cn5c(c(-c6ccc(F)cc6)c4=O)CCCC5)cc3F)c2nc1OC [Compound 363, N-[4-[(6,7-dimethoxy-1,5-naphthyridin-4-yl)oxy]-3-fluorophenyl]-1-(4-fluorophenyl)-2-oxo-6,7,8,9-tetrahydroquinolizine-3-carboxamide]
> 300 nM	< 100 nM	< 100 nM	< 100 nM					C=Cc1c(C)c(C(=O)Nc2ccc(Oc3ccnc4cc(OC)c(OC)nc34)cc2)c(=O)n(-c2ccc(F)cc2)c1C [Compound 328, N-[4-[(6,7-Dimethoxy-1,5-naphthyridin-4-yl)oxy]phenyl]-5-ethenyl-1-(4-fluorophenyl)-4,6-dimethyl-2-oxopyridine-3-carboxamide]
> 300 nM	> 300 nM	> 300 nM	> 300 nM					COc1cc2nccc(Oc3ccc(NC(=O)c4n[nH]c(C)cc4=O)cc3F)c2nc1OC [Compound 536, N-[4-[(6,7-dimethoxy-1,5-naphthyridin-4-yl)oxy]-3-fluorophenyl]-6-methyl-4-oxo-1H-pyridazine-3-carboxamide]
< 100 nM	< 100 nM	< 100 nM	< 100 nM					COCCc1nc(C)c(-c2ccc(F)cc2)c(O)c1C(=O)Nc1ccc(Oc2ccnc3cc(OC)c(OC)nc23)c(F)c1 [Compound 785, N-[4-[(6,7-dimethoxy-1,5-naphthyridin-4-yl)oxy]-3-fluorophenyl]-5-(4-fluorophenyl)-4-hydroxy-2-(2-methoxyethyl)-6-methylpyridine-3-carboxamide]
				> 300 nM	< 100 nM	< 100 nM	< 100 nM	COc1cc2nccc(Oc3ccc(NC(=O)c4c(C)n(CC(F)F)cc(-c5ccc(F)c(F)c5)c4=O)cc3F)c2nc1OC [Compound 816, 1-(2,2-difluoroethyl)-5-(3,4-difluorophenyl)-N-[4-[(6,7-dimethoxy-1,5-naphthyridin-4-yl)oxy]-3-fluorophenyl]-2-methyl-4-oxopyridine-3-carboxamide]
> 300 nM	< 100 nM	< 100 nM	< 100 nM					COc1cnc2c(Oc3ccc(NC(=O)c4cn(C(F)F)c(C)c(-c5ccc(F)cc5)c4=O)cc3)ccnc2c1 [Compound 669, 1-(difluoromethyl)-5-(4-fluorophenyl)-N-[4-[(7-methoxy-1,5-naphthyridin-4-yl)oxy]phenyl]-6-methyl-4-oxopyridine-3-carboxamide]
< 100 nM	< 100 nM	< 100 nM	< 100 nM					COCc1cnn(-c2ccc(F)cc2)c(=O)c1C(=O)Nc1ccc(Oc2ccnc3cc(OC)c(OC)nc23)cc1 [Compound 537, N-[4-[(6,7-dimethoxy-1,5-naphthyridin-4-yl)oxy]phenyl]-2-(4-fluorophenyl)-5-(methoxymethyl)-3-oxopyridazine-4-carboxamide]
< 100 nM	< 100 nM	< 100 nM	< 100 nM					C=C(C)c1cnc2c(Oc3ccc(NC(=O)c4c(C)ncc(-c5ccc(F)cc5C)c4O)cc3F)ccnc2c1 [Compound 474, 5-(4-fluoro-2-methylphenyl)-N-[3-fluoro-4-[(7-prop-1-en-2-yl-1,5-naphthyridin-4-yl)oxy]phenyl]-4-hydroxy-2-methylpyridine-3-carboxamide]
< 100 nM	< 100 nM	< 100 nM	< 100 nM					COc1cc2nccc(Oc3ccc(NC(=O)c4c(C)ncc(-c5ccc(F)c(F)c5)c4O)cc3F)c2nc1OC [Compound 796, 5-(3,4-difluorophenyl)-N-[4-[(6,7-dimethoxy-1,5-naphthyridin-4-yl)oxy]-3-fluorophenyl]-4-hydroxy-2-methylpyridine-3-carboxamide]
100 to 300 nM	< 100 nM	< 100 nM	< 100 nM					CCOc1c(C(=O)Nc2ccc(Oc3ccnc4cc(OC)c(OC)nc34)c(F)c2)cnc(C)c1-c1ccc(F)cc1 [Compound 333, N-[4-[(6,7-dimethoxy-1,5-naphthyridin-4-yl)oxy]-3-fluorophenyl]-4-ethoxy-5-(4-fluorophenyl)-6-methylpyridine-3-carboxamide]
< 100 nM	< 100 nM	< 100 nM	< 100 nM					CCOc1nc2c(Oc3ccc(NC(=O)c4c(COC)nc(C)c(-c5ccc(F)cc5)c4O)cc3F)ccnc2cc1OC [Compound 676, N-[4-[(6-ethoxy-7-methoxy-1,5-naphthyridin-4-yl)oxy]-3-fluorophenyl]-5-(4-fluorophenyl)-4-hydroxy-2-(methoxymethyl)-6-methylpyridine-3-carboxamide]
< 100 nM	< 100 nM	< 100 nM	100 to 300 nM					COc1cc2nccc(Oc3ccc(NC(=O)c4c(C)ncc(Br)c4O)cc3F)c2nc1OC [Compound 490, 5-bromo-N-[4-[(6,7-dimethoxy-1,5-naphthyridin-4-yl)oxy]-3-fluorophenyl]-4-hydroxy-2-methylpyridine-3-carboxamide]
> 300 nM	< 100 nM	< 100 nM	< 100 nM					COCc1cnn(-c2ccc(F)cc2)c(=O)c1C(=O)Nc1ccc(Oc2ccnc3cc(OC)cnc23)c(F)c1 [Compound 532, N-[3-fluoro-4-[(7-methoxy-1,5-naphthyridin-4-yl)oxy]phenyl]-2-(4-fluorophenyl)-5-(methoxymethyl)-3-oxopyridazine-4-carboxamide]
< 100 nM	< 100 nM	< 100 nM	< 100 nM					COCCOc1nc2c(Oc3ccc(NC(=O)c4c(C)nc(C)c(-c5ccc(F)cc5C)c4O)cc3F)ccnc2cc1OC [Compound 208, N-[3-Fluoro-4-[[7-methoxy-6-(2-methoxyethoxy)-1,5-naphthyridin-4-yl]oxy]phenyl]-5-(4-fluoro-2-methylphenyl)-4-hydroxy-2,6-dimethylpyridine-3-carboxamide]
< 100 nM	< 100 nM	< 100 nM	< 100 nM					C=C(C)c1cnc2c(Oc3ccc(NC(=O)c4c(C)nc(C)n(-c5ccc(F)cc5)c4=O)cc3)ccnc2c1 [Compound 467, 1-(4-fluorophenyl)-2,4-dimethyl-6-oxo-N-[4-[(7-prop-1-en-2-yl-1,5-naphthyridin-4-yl)oxy]phenyl]pyrimidine-5-carboxamide]
